From US5688913A, “CS-1 peptidomimetics, compositions and methods of using the same” (Cytel Corporation, priority 1995, dated 1997)
Peptide text beside a SMILES is read from it.

Legend:
Jurkat T cell line = assay: Jurkat cell binding to frozen human RA synovial sections; type: cell-based; details: 10-mer at 500 μg/ml; inhibitor peptide at its IC50 value
Description: Binding studies were carried out using the Jurkat T cell line and frozen RA synovial sections. […] Stimulated MOLT-4 cells behaved similarly.

VLA-4 = VLA-4 (Homo sapiens, UniProt P05556+P13612); assay: cell-based; type: cell-based; set-up: host or cells: Jurkat (human T lymphoblastic line)
Procedure, shortened: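 51Cr-labelled Jurkat cells (human T lymphoblastic) were preincubated 30 min at about 22 °C with peptide, then allowed to bind 30 min at 37 °C to wells coated with CS-1 peptide or CS-1-OVA. After washing, bound cells were lysed with SDS and counted. IC50 is the peptide concentration halving binding, normalized to plate controls.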

Sequence of VLA-4 (P13612 34-1032): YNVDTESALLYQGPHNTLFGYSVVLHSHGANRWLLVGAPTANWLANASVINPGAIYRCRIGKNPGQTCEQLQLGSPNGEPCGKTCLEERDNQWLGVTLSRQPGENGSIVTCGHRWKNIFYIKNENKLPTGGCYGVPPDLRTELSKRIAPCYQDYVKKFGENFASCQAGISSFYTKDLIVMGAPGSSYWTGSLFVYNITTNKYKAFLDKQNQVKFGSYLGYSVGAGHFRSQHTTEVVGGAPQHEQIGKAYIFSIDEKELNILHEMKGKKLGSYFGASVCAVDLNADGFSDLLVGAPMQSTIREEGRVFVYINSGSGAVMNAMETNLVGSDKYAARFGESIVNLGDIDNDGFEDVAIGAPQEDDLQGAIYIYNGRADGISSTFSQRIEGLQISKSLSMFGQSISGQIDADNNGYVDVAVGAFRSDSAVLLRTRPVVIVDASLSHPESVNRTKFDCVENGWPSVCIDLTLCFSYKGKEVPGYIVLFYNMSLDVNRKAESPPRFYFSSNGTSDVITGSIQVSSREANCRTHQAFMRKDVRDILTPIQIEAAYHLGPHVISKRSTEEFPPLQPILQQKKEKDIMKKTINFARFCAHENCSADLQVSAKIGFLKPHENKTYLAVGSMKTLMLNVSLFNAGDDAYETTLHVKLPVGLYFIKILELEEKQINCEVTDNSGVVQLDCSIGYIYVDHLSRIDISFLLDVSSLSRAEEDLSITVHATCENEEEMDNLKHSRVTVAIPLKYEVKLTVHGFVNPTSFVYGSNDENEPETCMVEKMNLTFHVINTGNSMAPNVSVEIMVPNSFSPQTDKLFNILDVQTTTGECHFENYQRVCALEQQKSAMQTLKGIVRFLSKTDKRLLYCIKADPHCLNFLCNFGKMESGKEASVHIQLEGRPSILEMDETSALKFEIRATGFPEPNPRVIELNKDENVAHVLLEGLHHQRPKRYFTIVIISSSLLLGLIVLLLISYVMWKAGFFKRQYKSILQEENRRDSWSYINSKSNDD
Sequence of VLA-4 (P05556 21-798): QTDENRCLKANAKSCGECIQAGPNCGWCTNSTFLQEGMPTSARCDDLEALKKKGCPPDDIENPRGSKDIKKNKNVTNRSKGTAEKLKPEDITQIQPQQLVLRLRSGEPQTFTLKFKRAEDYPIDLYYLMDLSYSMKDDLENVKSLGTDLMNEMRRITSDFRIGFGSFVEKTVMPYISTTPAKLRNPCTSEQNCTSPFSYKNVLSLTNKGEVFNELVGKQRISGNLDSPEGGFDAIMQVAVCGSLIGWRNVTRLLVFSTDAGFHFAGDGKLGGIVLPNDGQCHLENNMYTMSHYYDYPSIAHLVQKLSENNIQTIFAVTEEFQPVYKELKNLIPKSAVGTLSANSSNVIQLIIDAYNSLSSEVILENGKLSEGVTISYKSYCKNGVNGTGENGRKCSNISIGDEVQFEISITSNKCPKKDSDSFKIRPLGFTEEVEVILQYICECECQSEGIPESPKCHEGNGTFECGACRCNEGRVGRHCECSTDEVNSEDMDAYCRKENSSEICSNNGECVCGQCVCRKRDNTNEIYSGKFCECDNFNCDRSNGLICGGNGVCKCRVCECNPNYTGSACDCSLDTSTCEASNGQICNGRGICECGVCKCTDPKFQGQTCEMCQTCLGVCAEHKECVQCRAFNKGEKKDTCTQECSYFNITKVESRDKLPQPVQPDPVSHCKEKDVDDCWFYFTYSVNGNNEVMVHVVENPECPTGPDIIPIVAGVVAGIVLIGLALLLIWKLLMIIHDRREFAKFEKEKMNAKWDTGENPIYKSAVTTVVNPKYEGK

RELATIVE POTENCY (relative peptide inhibition of VLA-4 binding CS-1) (VLA-4): 1
Structure (SMILES): CC[C@H](C)[C@H](NC(=O)[C@H](CCC(=O)O)NC(=O)[C@@H]1CCCN1C(=O)CN)C(=O)N[C@@H](CC(C)C)C(=O)N[C@@H](CC(=O)O)C(=O)N[C@H](C(=O)N1CCC[C@H]1C(=O)N[C@@H](CO)C(=O)N[C@H](C(=O)O)[C@@H](C)O)C(C)C [G P E I L D V P S T free amine free acid, GPEILDVPST, reference compound] (H-GPEILDVPST-OH)
inhibition of Jurkat cell adhesion to RA synovial sections (Jurkat T cell line): could be inhibited
